Test results published in patent US9266878B2, “Phosphatidylinositol 3-kinase inhibitors” (Gilead Calistoga LLC, priority 2012, dated 2016).

What was measured:
Assay in all cases: Enzymatic activity of PI3K isoforms, TR-FRET assay (PIP3 formation)
Format in all cases: biochemical
[1] = molecular target: PI3Kα (Homo sapiens (Human), UniProt P42336)
Method in brief: (§1)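 Heterodimeric recombinant class I PI3K; PIP3 product displaces labeled PIP3 from GRP-1 PH domain, lowering TR-FRET. Reaction 30 min at 25° C, stopped with 10 mM EDTA, 10 nM labeled-PIP3, 35 nM Eu-GRP-1. Read Ex 340 nm, Em 615/665 nm; IC50 in nM.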

[2] = molecular target: PI3Kδ (Homo sapiens (Human), UniProt O00329)
Chain of PI3Kδ (O00329 whole entry): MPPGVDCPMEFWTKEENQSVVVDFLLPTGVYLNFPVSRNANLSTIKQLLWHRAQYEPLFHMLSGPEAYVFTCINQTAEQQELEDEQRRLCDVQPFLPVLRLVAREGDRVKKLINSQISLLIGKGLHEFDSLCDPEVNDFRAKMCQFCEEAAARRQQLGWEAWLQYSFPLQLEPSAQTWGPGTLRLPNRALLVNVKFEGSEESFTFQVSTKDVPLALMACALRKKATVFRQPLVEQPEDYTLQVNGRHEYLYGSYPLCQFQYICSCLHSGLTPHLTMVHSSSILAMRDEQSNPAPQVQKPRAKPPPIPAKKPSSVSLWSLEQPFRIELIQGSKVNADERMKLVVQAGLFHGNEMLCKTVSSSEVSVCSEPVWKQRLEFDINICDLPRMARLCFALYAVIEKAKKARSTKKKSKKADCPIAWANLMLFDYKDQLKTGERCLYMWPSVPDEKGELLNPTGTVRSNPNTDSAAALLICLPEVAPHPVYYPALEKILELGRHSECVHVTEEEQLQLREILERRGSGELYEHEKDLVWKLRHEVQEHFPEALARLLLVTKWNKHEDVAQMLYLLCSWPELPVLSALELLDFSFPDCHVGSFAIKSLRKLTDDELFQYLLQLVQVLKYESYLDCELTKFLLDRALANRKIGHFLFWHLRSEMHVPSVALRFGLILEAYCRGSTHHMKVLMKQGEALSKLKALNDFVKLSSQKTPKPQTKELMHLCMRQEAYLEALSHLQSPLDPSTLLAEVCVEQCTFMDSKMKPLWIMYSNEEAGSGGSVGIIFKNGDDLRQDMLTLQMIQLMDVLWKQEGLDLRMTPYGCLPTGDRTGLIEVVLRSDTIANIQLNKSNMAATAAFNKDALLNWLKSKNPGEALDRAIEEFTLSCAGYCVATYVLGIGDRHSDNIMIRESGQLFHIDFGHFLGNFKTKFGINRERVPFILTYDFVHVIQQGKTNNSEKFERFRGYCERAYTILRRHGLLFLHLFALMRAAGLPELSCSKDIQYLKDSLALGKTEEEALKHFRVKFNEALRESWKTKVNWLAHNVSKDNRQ
Chain of PI3Kδ (P27986 whole entry partner): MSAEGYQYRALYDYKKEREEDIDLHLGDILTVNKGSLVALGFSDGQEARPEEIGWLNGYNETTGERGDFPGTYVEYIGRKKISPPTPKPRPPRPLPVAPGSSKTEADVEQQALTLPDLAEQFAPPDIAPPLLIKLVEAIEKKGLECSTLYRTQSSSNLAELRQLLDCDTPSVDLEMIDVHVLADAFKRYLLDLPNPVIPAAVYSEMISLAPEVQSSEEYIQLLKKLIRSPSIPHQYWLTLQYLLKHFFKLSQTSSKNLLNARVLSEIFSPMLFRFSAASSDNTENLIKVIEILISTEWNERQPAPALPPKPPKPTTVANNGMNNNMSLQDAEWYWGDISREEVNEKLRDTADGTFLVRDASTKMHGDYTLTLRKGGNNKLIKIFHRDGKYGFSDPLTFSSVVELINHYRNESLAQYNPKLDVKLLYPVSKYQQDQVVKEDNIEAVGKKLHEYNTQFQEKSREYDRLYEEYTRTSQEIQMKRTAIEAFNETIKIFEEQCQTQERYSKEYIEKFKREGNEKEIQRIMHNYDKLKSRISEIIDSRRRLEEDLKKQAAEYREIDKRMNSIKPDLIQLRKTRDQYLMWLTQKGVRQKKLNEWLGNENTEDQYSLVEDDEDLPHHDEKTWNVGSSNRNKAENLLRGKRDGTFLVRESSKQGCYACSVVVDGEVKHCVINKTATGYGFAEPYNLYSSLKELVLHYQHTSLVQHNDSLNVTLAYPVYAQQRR
Method in brief: as §1

[3] = molecular target: PI3Kβ (Homo sapiens (Human), UniProt P42338)
Chain of PI3Kβ (P42338 whole entry, the tested form may be a part): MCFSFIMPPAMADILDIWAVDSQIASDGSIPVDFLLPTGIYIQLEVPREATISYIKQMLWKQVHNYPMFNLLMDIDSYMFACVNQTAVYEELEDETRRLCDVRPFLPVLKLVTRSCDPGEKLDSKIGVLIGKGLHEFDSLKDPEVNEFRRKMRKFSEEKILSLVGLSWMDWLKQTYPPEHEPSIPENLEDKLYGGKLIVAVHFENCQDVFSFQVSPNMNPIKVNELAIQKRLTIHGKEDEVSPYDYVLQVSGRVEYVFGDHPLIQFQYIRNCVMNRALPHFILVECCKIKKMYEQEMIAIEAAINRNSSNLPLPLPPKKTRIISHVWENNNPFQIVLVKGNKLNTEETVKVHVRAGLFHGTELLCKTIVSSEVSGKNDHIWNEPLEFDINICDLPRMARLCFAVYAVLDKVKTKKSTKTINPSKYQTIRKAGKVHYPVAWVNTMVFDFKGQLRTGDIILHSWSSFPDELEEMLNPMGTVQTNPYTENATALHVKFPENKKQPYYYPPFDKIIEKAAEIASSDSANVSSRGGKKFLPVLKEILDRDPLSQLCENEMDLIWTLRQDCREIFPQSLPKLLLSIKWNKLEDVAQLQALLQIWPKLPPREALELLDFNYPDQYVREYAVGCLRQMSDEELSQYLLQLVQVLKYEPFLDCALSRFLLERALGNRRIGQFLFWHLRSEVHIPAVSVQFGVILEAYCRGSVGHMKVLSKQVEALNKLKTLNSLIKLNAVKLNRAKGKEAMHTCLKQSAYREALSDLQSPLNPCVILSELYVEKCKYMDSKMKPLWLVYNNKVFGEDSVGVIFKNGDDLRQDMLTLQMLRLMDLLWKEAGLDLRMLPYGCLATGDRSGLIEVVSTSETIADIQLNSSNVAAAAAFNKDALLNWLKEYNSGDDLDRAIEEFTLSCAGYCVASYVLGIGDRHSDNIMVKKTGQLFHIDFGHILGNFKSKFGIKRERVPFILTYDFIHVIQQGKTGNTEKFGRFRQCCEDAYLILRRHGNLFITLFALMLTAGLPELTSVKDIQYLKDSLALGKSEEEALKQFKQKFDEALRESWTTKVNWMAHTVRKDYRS
Chain of PI3Kβ (P27986 whole entry partner, the tested form may be a part): as the sequence (P27986 whole entry partner) above
Method in brief: (§2)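 Recombinant heterodimeric class I PI3K enzymes were assayed by TR-FRET. PIP3 product displaces fluorescently labelled PIP3 from the GRP-1 PH domain, lowering the signal; IC50 values are given in nM.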

[4] = molecular target: PI3Kγ (Homo sapiens (Human), UniProt P48736)
Method in brief: as §2

Chain of PI3Kα (P42336 whole entry, the tested form may be a part): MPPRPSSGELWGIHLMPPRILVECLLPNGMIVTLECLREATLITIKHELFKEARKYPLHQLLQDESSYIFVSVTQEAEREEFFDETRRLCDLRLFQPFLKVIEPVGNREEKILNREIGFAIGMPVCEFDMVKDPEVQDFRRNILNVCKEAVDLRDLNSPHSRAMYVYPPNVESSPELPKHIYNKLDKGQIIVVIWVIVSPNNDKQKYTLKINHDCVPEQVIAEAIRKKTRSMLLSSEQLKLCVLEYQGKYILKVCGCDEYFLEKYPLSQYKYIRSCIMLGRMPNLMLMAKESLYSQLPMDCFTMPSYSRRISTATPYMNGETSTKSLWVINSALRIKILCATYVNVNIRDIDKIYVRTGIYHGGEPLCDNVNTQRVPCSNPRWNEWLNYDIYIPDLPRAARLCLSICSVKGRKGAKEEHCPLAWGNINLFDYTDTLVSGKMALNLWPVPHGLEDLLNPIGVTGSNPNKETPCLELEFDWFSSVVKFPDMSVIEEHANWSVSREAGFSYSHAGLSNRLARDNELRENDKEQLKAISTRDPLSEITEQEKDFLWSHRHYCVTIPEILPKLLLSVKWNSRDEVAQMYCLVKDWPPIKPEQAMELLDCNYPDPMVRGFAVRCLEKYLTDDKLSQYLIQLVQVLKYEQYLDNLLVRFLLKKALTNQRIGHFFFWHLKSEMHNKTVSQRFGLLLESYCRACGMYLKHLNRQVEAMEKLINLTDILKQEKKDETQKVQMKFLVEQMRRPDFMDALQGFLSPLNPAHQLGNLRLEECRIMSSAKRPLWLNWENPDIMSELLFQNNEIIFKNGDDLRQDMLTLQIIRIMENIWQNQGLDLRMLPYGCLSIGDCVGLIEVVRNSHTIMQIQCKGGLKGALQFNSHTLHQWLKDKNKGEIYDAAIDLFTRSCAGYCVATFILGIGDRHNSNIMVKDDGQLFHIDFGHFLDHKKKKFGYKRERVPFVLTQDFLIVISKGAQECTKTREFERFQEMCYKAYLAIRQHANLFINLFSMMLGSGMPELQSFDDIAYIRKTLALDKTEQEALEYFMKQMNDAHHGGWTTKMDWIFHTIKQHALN
Chain of PI3Kα (P27986 whole entry partner, the tested form may be a part): as the sequence (P27986 whole entry partner) above

SMILES | IC50 ([1]; bound given in uM) | IC50 ([2]; bound given in nM) | IC50 ([3]; bound given in uM) | IC50 ([4]; bound given in uM) | IC50 ([3]; bound given in nM) | IC50 ([4]; bound given in nM) | IC50 ([1]; bound given in nM) | IC50 ([2]; bound given in uM)
Cc1cccc2nc([C@H](C)Nc3ncnc(N)c3C#Cc3cnccn3)n(-c3cncc(F)c3)c(=O)c12 [Compound 120a, (S)-2-(1-((6-amino-5-(pyrazin-2-ylethynyl)pyrimidin-4-yl)amino)ethyl)-3-(5-fluoropyridin-3-yl)-5-methylquinazolin-4(3H)-one] | > 1 µM | < 100 nM | > 1 µM | > 1 µM |  |  |  | 
C[C@H](Nc1ncnc(N)c1C#Cc1cnccn1)c1nc2cccc(Cl)c2c(=O)n1C1C[C@H]2CC[C@@H](C1)N2C (stereo partly drawn) [Compound 124a, 2-((S)-1-((6-amino-5-(pyrazin-2-ylethynyl)pyrimidin-4-yl)amino)ethyl)-5-chloro-3-((1R,5S)-8-methyl-8-azabicyclo[3.2.1]octan-3-yl)quinazolin-4(3H)-one] | > 1 µM | < 100 nM | > 1 µM | > 1 µM |  |  |  | 
C[C@H](Nc1ncnc(N)c1C#Cc1cnccn1)c1nc2cccc(Cl)c2c(=O)n1N1CCCCCC1 [Compound 126a, (S)-2-(1-((6-amino-5-(pyrazin-2-ylethynyl)pyrimidin-4-yl)amino)ethyl)-3-(azepan-1-yl)-5-chloroquinazolin-4(3H)-one] | > 1 µM | < 100 nM | > 1 µM | > 1 µM |  |  |  | 
C[C@H](Nc1ncnc(N)c1C#Cc1ccc(F)cn1)c1nc2cccc(Cl)c2c(=O)n1N1CCNCC1 [Compound 127a, (S)-2-(1-((6-amino-5-((5-fluoropyridin-2-yl)ethynyl)pyrimidin-4-yl)amino)ethyl)-5-chloro-3-(piperazin-1-yl)quinazolin-4(3H)-one] | > 1 µM | < 100 nM |  | > 1 µM | < 0.1 µM |  |  | 
Cc1cccc2nc([C@H](C)Nc3ncnc(N)c3C#Cc3ccc(F)cn3)n(-c3cccc(CN(C)S(C)(=O)=O)c3)c(=O)c12 [Compound 128a, (S)—N-(3-(2-(1-((6-amino-5-((5-fluoropyridin-2-yl)ethynyl)pyrimidin-4-yl)amino)ethyl)-5-methyl-4-oxoquinazolin-3(4H)-yl)benzyl)-N-methylmethanesulfonamide] | > 1 µM | < 100 nM | > 1 µM | > 1 µM |  |  |  | 
C[C@H](Nc1ncnc(N)c1C#Cc1ccc(F)cn1)c1nc2cccc(Cl)c2c(=O)n1-c1cccc(CN(C)S(C)(=O)=O)c1 [Compound 129a, (S)—N-(3-(2-(1-((6-amino-5-((5-fluoropyridin-2-yl)ethynyl)pyrimidin-4-yl)amino)ethyl)-5-chloro-4-oxoquinazolin-3(4H)-yl)benzyl)-N-methylmethanesulfonamide] | > 1 µM | < 100 nM | > 1 µM | > 1 µM |  |  |  | 
C[C@H](Nc1ncnc(N)c1C#Cc1ccc(F)cn1)c1nc2cccc(Cl)c2c(=O)n1-c1cccc(CNS(C)(=O)=O)c1 [Compound 130a, (S)—N-(3-(2-(1-((6-amino-5-((5-fluoropyridin-2-yl)ethynyl)pyrimidin-4-yl)amino)ethyl)-5-chloro-4-oxoquinazolin-3(4H)-yl)benzyl)methanesulfonamide] | > 1 µM | < 100 nM | > 1 µM | > 1 µM |  |  |  | 
CC(C)CS(=O)(=O)NCc1cccc(-n2c([C@H](C)Nc3ncnc(N)c3C#Cc3ccc(F)cn3)nc3cccc(Cl)c3c2=O)c1 [Compound 131a, (S)—N-(3-(2-(1-((6-amino-5-((5-fluoropyridin-2-yl)ethynyl)pyrimidin-4-yl)amino)ethyl)-5-chloro-4-oxoquinazolin-3(4H)-yl)benzyl)-2-methylpropane-1-sulfonamide] | > 1 µM | < 100 nM | > 1 µM | > 1 µM |  |  |  | 

Further lines, results first:

IC50 ([1]; bound given in uM) | IC50 ([2]; bound given in nM) | IC50 ([3]; bound given in uM) | IC50 ([4]; bound given in uM) | IC50 ([3]; bound given in nM) | IC50 ([4]; bound given in nM) | IC50 ([1]; bound given in nM) | IC50 ([2]; bound given in uM) | SMILES
> 1 µM | < 100 nM | > 1 µM |  |  | < 0.1 µM |  |  | C[C@H](Nc1ncnc(N)c1C#Cc1ccc(C(F)(F)F)cn1)c1nc2cccc(Cl)c2c(=O)n1-c1ccccc1 [Compound 132a, (S)-2-(1-((6-amino-5-((5-(trifluoromethyl)pyridin-2-yl)ethynyl)pyrimidin-4-yl)amino)ethyl)-5-chloro-3-phenylquinazolin-4(3H)-one]
> 1 µM | < 100 nM | > 1 µM | > 1 µM |  |  |  |  | C[C@H](Nc1ncnc(N)c1C#Cc1ccc(C(=O)O)cn1)c1nc2cccc(Cl)c2c(=O)n1-c1ccccc1 [Compound 138a, (S)-6-((4-amino-6-((1-(5-chloro-4-oxo-3-phenyl-3,4-dihydroquinazolin-2-yl)ethyl)amino)pyrimidin-5-yl)ethynyl)nicotinic acid]
> 1 µM | < 100 nM | > 1 µM | > 1 µM |  |  |  |  | C[C@H](Nc1ncnc(N)c1C#CC1CCCCC1)c1nc2cccc(Cl)c2c(=O)n1-c1ccccc1 [Compound 145a, (S)-2-(1-((6-amino-5-(cyclohexylethynyl)pyrimidin-4-yl)amino)ethyl)-5-chloro-3-phenylquinazolin-4(3H)-one]
> 1 µM | < 100 nM |  |  | < 0.1 µM | < 0.1 µM |  |  | C[C@H](Nc1ncnc(N)c1C#Cc1cc(C(F)F)ccn1)c1nc2cccc(Cl)c2c(=O)n1-c1ccccc1 [Compound 149a, (S)-2-(1-((6-amino-5-((4-(difluoromethyl)pyridin-2-yl)ethynyl)pyrimidin-4-yl)amino)ethyl)-5-chloro-3-phenylquinazolin-4(3H)-one]
> 1 µM | < 100 nM | > 1 µM | > 1 µM |  |  |  |  | C[C@H](Nc1ncnc(N)c1C#Cc1cccc(CN)n1)c1nc2cccc(Cl)c2c(=O)n1-c1ccccc1 [Compound 159a, (S)-2-(1-((6-amino-5-((6-(aminomethyl)pyridin-2-yl)ethynyl)pyrimidin-4-yl)amino)ethyl)-5-chloro-3-phenylquinazolin-4(3H)-one]
 | < 100 nM |  |  | < 0.1 µM | < 0.1 µM | < 0.1 µM |  | CC(=O)c1cccc(C#Cc2c(N)ncnc2N[C@@H](C)c2nc3cccc(Cl)c3c(=O)n2-c2ccccc2)c1 [Compound 161a, (S)-2-(1-((5-((3-acetylphenyl)ethynyl)-6-aminopyrimidin-4-yl)amino)ethyl)-5-chloro-3-phenylquinazolin-4(3H)-one]
> 1 µM |  | > 1 µM | > 1 µM |  |  |  | > 1000 nM | C[C@H](Nc1ncnc(N)c1C#Cc1ncccc1CO)c1nc2cccc(Cl)c2c(=O)n1-c1ccccc1 [Compound 163a, (S)-2-(1-((6-amino-5-((3-(hydroxymethyl)pyridin-2-yl)ethynyl)pyrimidin-4-yl)amino)ethyl)-5-chloro-3-phenylquinazolin-4(3H)-one]
